# Data reported in patent US4213984A, “11-(Piperazino-acetyl)-5,11-di hydro-6H-pyrido[2,3-b][1,4]benzodiazepin-6-ones and salts thereof” (Boehringer Ingelheim GmbH, priority 1977, dated 1980).
# Assays:
# white mice = assay: acute toxicity after peroral administration to fasted white mice; type: in vivo; conditions: mouse, six mice per dosage, at the LD50 dose
# Experimental: (§1) The acute toxicity was determined after peroral administration of the test substance to fasted white mice with a body weight of 18 to 20 gm. The observation period was 14 days. For each dosage a group of six mice was used.
# [1] = as above; type: in vivo; conditions: in vivo, po, mouse, observation period 14 days, read-out: LD50 peroral mgm/kg mouse
# Experimental: as §1
# stress ulcers in rats = assay: inhibiting effect on the formation of stress ulcers in rats (Takagi and Okabe), peroral; type: in vivo; conditions: po, rat; for inhibition in vivo at 12.5 mg/kg: 12.5 mgm/kg, read-out: Ulcer inhibition in % (rat) after peroral administration of 12.5 mgm/kg; for inhibition in vivo at 25 mg/kg: 25 mgm/kg, read-out: Ulcer inhibition in % (rat) after peroral administration of 25 mgm/kg; for inhibition in vivo at 50 mg/kg: 50 mgm/kg, read-out: Ulcer inhibition in % (rat) after peroral administration of 50 mgm/kg
# Experimental: (§2) The compounds were examined with regard to their inhibiting effect on the formation of stress ulcers in rats and their spasmolytic effect, related to atropine, with consideration of their acute toxicity.
# The inhibiting effect on the formation of stress ulcers in rats was determined according to the method of K. Takagi and S. Okabe, Jap.Journ.Pharmac. 18,pp. 9 to 18 (1968). Fed female rats with a body weight between 220 and 260 gm were individually put into small wire cages and were subsequently kept vertically submerged in a water bath which was kept constant at a temperature of 23° C. for 16 hours, so that only the heads and the breastbones of the animals were above the water surface. The test compounds were administered perorally 5 to 10 minutes before. With each substance five animals were treated. 1 ml of a 0.9% physiological sodium chloride solution or 1 ml of a 1% tylose solution was administered to the control animals in the same way. After 18 hours the animals were killed by an overdose of ethyl chloride, the stomachs were excised, cut along the big curvature and spread on a cork plate. The evaluation was carried out according to the methods of Marazzi-Uberti and Turba, Med. Exp. 4, pp. 284 to 292 (1961), and Takagi and Okabe (supra)
# guinea pig colon = assay: spasmolytic effect in vitro on the guinea pig colon, acetylcholine-induced spasms, compared with atropinesulfate; conditions: acetylcholine spasm, relative to Atropine = 1
# Experimental: as §2
# The spasmolytic effect was determined in vitro on the guinea pig colon, using the experimental arrangement according to R. Magnus, Pflugers Archiv, 102, pp. 123 (1904). Acetylcholine was taken to induce spasms, the substance for comparison was atropinesulfate. The spasticum was administered one minute before the administration of the spasmolytic substance, and the spasmolytic was allowed to take effect for 1 minute.
Compound,number of animals that died (white mice),LD50 at 336 h [1] [mg/kg],inhibition in vivo at 12.5 mg/kg (stress ulcers in rats) [%],inhibition in vivo at 25 mg/kg (stress ulcers in rats) [%],inhibition in vivo at 50 mg/kg (stress ulcers in rats) [%],Spasmolysis (acetylcholine) in respect to Atropine = 1 (guinea pig colon)
"CC(C)=CCN1CCN(CC(=O)N2c3ccccc3C(=O)Nc3cccnc32)CC1.Cl.Cl [B, 5,11-Dihydro-11-{[4-(3-methyl-but-2-enyl)-1-piperazinyl]acetyl}-6H-pyrido[2,3-b][1,4]benzodiazepin-6-one dihydrochloride]","+ (means, 0 of 6 animals died)",> 1500,52,63,84,1/200
"CN1C(=O)c2ccccc2N(C(=O)CN2CCN(Cc3ccc4c(c3)OCO4)CC2)c2ncccc21 [G, 5,11-Dihydro-5-methyl-11-{[4-(3,4methylenedioxy-benzyl)-1-piperazinyl]acetyl}-6H-pyrido[2,3-b][1,4]benzodiazepin-6-one]","+++ (means, 2 of 6 animals died)",> 1500,21,58,90,1/290
"O=C1Nc2cccnc2N(C(=O)CN2CCN(CC34CC5CC(CC(C5)C3)C4)CC2)c2ccccc21 [D, 11-{[4-(1-Adamantyl-methyl)-1-piperazinyl]acetyl}-5,11-dihydro-6-H-pyrido[2,3-b][1,4]benzodiazepin-6-one]","+ (means, 0 of 6 animals died)",> 3000,26,47,79,1/86
"O=C1Nc2cccnc2N(C(=O)CN2CCN(CC=Cc3ccccc3)CC2)c2ccccc21 [H, 11-[(4-Cinnamyl-1-piperazinyl)acetyl]-5,11-dihydro-6H-pyrido-[2,3-b][1,4]benzodiazepin-6-one]","++++ (means, 4 of 6 animals died)",~3000,53,69,95,1/700
"C=C(C)CN1CCN(CC(=O)N2c3ccccc3C(=O)Nc3cccnc32)CC1 [A, 5,11-Dihydro-11-{[4-(2-methyl-allyl)-1-piperazinyl]acetyl}-6H-pyrido[2,3-b][1,4]benzodiazepin-6-one]","+ (means, 0 of 6 animals died)",> 3000,32,52,90,1/330
"CC(C)(C)CN1CCN(CC(=O)N2c3ccccc3C(=O)Nc3cccnc32)CC1 [C, 5,11-Dihydro-11-{[4-(2,2-dimethyl-propyl)-1-piperazinyl]acetyl}-6H-pyrido[2,3-b][1,4]benzodiazepin-6-one]","+ (means, 0 of 6 animals died)",> 1500,39,61,95,1/70
"CC1CN(C)CCN1CC(=O)N1c2ccccc2C(=O)Nc2cccnc21.Cl (stereo not drawn) [F, 5,11-Dihydro-11-[(2,4-dimethyl-1-piperazinyl)acetyl]-6H-pyrido-[2,3-b][1,4]benzodiazepin-6-one-hydrochloride]","++ (means, 1 of 6 animals died)",> 3000,84,90,95,1/130
"O=C1Nc2cccnc2N(C(=O)CN2CCN(Cc3ccc4c(c3)OCO4)CC2)c2ccccc21 [E, 5,11-Dihydro-11-{[4-(3,4-methylenedioxy-benzyl)-1-piperazinyl]-acetyl}-6H-pyrido[2,3-b][1,4]benzodiazepin-6-one]","+++ (means, 2 of 6 animals died)",> 3000,37,73,95,1/78
